Reference: article PMC8840689, “Bacillus cereus Toxin Repertoire: Diversity of (Iso)cereulide(s)” (Molecules, 2022)

What was measured:
[1] = UPLC retention on RP-BEH-C18 column (analyte hydrophobicity); type: physicochemical; conditions: for RT (retention time on RP-BEH-C18 UPLC column): chromatographic, BEH-C18 2.1 × 150 mm, 1.7 µm, 0.4 mL/min, 45 °C, A aqueous HCOOH (0.1%), B MeCN with HCOOH (0.1%), 93% B to 100% B in 4 min, ESI-TOF-MS, uncalibrated, link to hydrophobicity only implicit
Experimental: Purification of cereulide (1) and isocereulides H–N (2–8): The purification of 1–8 from the reduced ethanol extract was performed according to the literature. In brief, the extract was diluted with H2O (1:10) for better retention of the target analytes on the column material and pre-fractionated via C18 SPE cartridges (60 mL, 10 g; Chromabond, Macherey-Nagel, Düren, Germany). All obtained methanolic fractions were combined and the solvent was reduced to approx. 150 mL using a rotary evaporator and stored at −20 °C until further use for compound isolation. The sample material was separated via semi-preparative HPLC into 10 fractions (Supplementary Materials, Figure S1), for which the respective eluates were combined and their solvents removed through a rotary evaporator. The obtained HPLC fractions were screened for cereulide (1) and its isocereulides using a UPLC-TOF-MS system Synapt G2-S (Waters, Manchester, UK) in the positive electrospray mode equipped with a 2.1 × 150 mm, 1.7 µm BEH-C18 column (Waters, Manchester, UK) at a flow rate of 0.4 mL/min at 45 °C using aqueous HCOOH (0.1%) as solvent A and MeCN with HCOOH (0.1%) as solvent B. Elution was performed by starting at 93% B, increasing to 100% B in 4 min, holding at 100% B for 2 min, followed by decreasing to 93% in 0.1 min and holding at 93% B for 0.9 min.

HEp-2 cells [2] = type: cell-based
From the text: (§1) Determination of EC50 of cereulide (1) and isocereulides H–N (2–8) via HEp-2 cell assay. The testing principle of the HEp-2 cell assay is based on the uncoupling of ATP synthesis, effectuated by supplemented ionophores, resulting in a facilitated ion influx into the mitochondria, thus disrupting the membrane potential. As a result, the 50% effective concentration (EC50) gives the amount of toxin required to inactivate half of the viable cells.
HEp-2 cell assay: The cytotoxic activity of 1–8 was determined by quantifying their EC50 using HEp-2 cells, as described previously. In a 96-well microtiter plate assay, a 2% ethanolic minimum essential medium (MEM-Earle’s), containing 2% FCS, 1% sodium pyruvate and 0.4% penicillin-streptomycin (v/v each), was provided to perform stepwise dilution of each toxin solution. As an overall toxicity reference and cell control, the structurally related toxin valinomycin was used analogously, in a range of approx. 2–500 ng/mL. The composition of each toxin sample is listed in the Supplementary Materials, Table S2. The HEp-2 cells were freed from their medium and washed with 5 mL of PBS twice and 5 mL of 0.05% Trypsin/EDTA solution was added. After incubation (8 min, 37 °C, 5% CO2), 10 mL of MEM was added and the cells were resuspended, transferred to a falcon tube and centrifuged (RT, 7 min, 700 rpm). The supernatant was discarded, the cell pellet was suspended in 5 mL of MEM and the cell count was determined via Trypan blue. Finally, the cell count was set to 6.7 × 10^5 cells/mL MEM (1 × 10^5 cells/well); a total of 150 µL of this solution was spiked to each well and the plate was incubated (48 h, 37 °C, 5% CO2). After removing 100 µL of the medium, 10 µL of the cell proliferation reagent WST (cell counting kit) was added and shaken for 1 min (400 rpm) and the plate was incubated (20 min, 37 °C, 5% CO2). To determine cell viability, the extinction at 450 nm/620 nm (TECAN infinite F200) was measured. The respective EC50 values for each sample were then calculated from the obtained dose-response curves and the corresponding applied sample dilution and concentration.
An aliquot of 2 µL of the respective samples with ^13C6-cereulide as an internal standard (100 ng/mL) was applied for the quantitation of 1–8 in the samples, later applied in the HEp-2 cell assay according to the literature, performed on a Waters Xevo TQ-S mass spectrometer (Waters) coupled to an Acquity UPLC i-class core system (Waters) with a binary solvent manager, sample manager and column oven. The system was operated with MassLynx 4.1 SCN 813 Software (Waters) and data processing and analysis were performed with TargetLynx (Waters). The recently reported quantitation method for cereulide and isocereulides A-G [33] was extended by implementing the ammonium adducts of 2–8 using the multiple reaction monitoring mode with the following parameters. Compounds 2, 3 and 7 m/z 1156.6 → qualifier m/z 172.2, 314.2; quantifier m/z 357.2. Compound 4 m/z 1142.6 → qualifier m/z 172.2, 314.2; quantifier m/z 357.2. Compound 5 m/z 1184.6 → qualifier m/z 172.2, 314.2; quantifier m/z 357.2. Compounds 6 and 8 m/z 1186.6 → qualifier m/z 172.2, 314.2; quantifier m/z 357.2. The calibration for the quantitation of the analytes consisted of mixtures of cereulide (0.1–1000 ng/mL in EtOH) and ^13C6-cereulide (100 ng/mL) as an internal standard. Mixtures were prepared from stock solutions and analyzed in triplicate by UPLC-MS/MS. The calibration curve was obtained by plotting the peak area ratios of analytes to internal standard against the concentration ratios of analyte to internal standard for each solution and applying linear regression (origin excluded) to give the equation y=2.5174x+0.0061 with R^2=0.9998 . For 1 and ^13C6-cereulide, the quantifier mass transitions were selected as m/z 1170.7 → m/z 357.2 and m/z 1176.7 → m/z 358.2, respectively. All mass spectrometric and chromatographic parameters were used as reported.

[3] = cited from earlier work
From the text: as §1

blood–brain barrier = conditions: porcine model; cited from earlier work
From the text: (§2) Similar to the antibiotic valinomycin, cereulide unfolds its toxicity potential due to a high affinity for complex formation with alkali metal ions (Li^+, Na^+ and K^+) and ammonium ions, resulting in its biological function as a strong K^+ ionophore and as a K^+ transporter, resulting in cell membrane depolarization.

5–HT3 receptors = conditions: lower concentrations; stimulation of the vagus afferent by binding to 5–HT3 receptors in the duodenum; cited from earlier work
From the text: as §2

[4] = cited from earlier work; remark: listed apart in the source
From the text: . Cereulide (1) is composed of 12 alternatingly placed α-amino and α-hydroxy acids thought to form the three-time circularly repeating tetradepsipeptide unit D-O-Leu-D-Ala-L-O-Val-L-Val (Figure 1), leading to its characteristic dodecadepsipeptide structure in a rectangular cylindrical shape. Because of its uniqu ...

HEp-2 cells [5] = conditions: cited from earlier work
From the text: At this point, we can only speculate about the magnitude of the impact that isocereulides have on the overall toxicity of (iso)cereulide-containing B. cereus cell cultures.

Row | Molecule | RT (retention time on RP-BEH-C18 UPLC column) [1] [min] | also measured
1 | isocereulide D | 2.88 | –
2 | isocereulide K | 4.59 | hydrophobicity compared with 1 (in words) [1]: more hydrophobic than 1; cytotoxicity compared to 1 (HEp-2 cells [2]; HEp-2 cells, 48 h): 69%
3 | CC[C@@H]1NC(=O)[C@H](C(C)C)OC(=O)[C@@H](C)NC(=O)[C@@H](CC(C)C)OC(=O)[C@H](C(C)C)NC(=O)[C@H](C(C)C)OC(=O)[C@@H](C)NC(=O)[C@@H](CC(C)C)OC(=O)[C@H](C(C)C)NC(=O)[C@H](C(C)C)OC(=O)[C@@H](C)NC(=O)[C@@H](CC(C)C)OC1=O [Isocereulide I, isocereulide I] | 3.40 | hydrophobicity compared with 1 (in words) [1]: slightly more hdrophilic; absolute EC50 (HEp-2 cells [2]; 48 h): 1.75 ng/mL; toxicity relative to cereulide (1) (reciprocal EC50, cereulide set to 1) (HEp-2 cells [2]; HEp-2 cells, 48 h): 1.4 fold
4 | isocereulide F | 5.00 | –
5 | CC(C)C[C@H]1OC(=O)[C@H](C(C)C)NC(=O)[C@H](C(C)C)OC(=O)CNC(=O)[C@@H](CC(C)C)OC(=O)[C@H](C(C)C)NC(=O)[C@H](C(C)C)OC(=O)[C@@H](C)NC(=O)[C@@H](CC(C)C)OC(=O)[C@H](C(C)C)NC(=O)[C@H](C(C)C)OC(=O)[C@@H](C)NC1=O [Isocereulide H, isocereulide H] | 2.88 | absolute EC50 (HEp-2 cells [2]; 48 h): 6.62 ng/mL; decreased toxicity effect on HEp-2 cells compared to 1 (HEp-2 cells [2]; HEp-2 cells, 48 h): 63%
6 | isocereulide C | 2.52 | –
7 | isocereulide E | 3.83 | –
8 | CC(C)C[C@H]1OC(=O)[C@H](C(C)C)NC(=O)[C@H](C(C)C)OC(=O)[C@@H](C)NC(=O)[C@@H](CC(C)C)OC(=O)[C@H](C(C)C)NC(=O)[C@H](C(C)C)OC(=O)[C@@H](C)NC(=O)[C@@H](CC(C)C)OC(=O)[C@H](C(C)C)NC(=O)[C@H](C(C)C)OC(=O)[C@@H](C)NC1=O [Cereulide, cereulide] | 4.25 | increased toxicity compared to valinomycin [3]: approx. 15 fold; crossing of the blood–brain barrier (blood–brain barrier): can cross the blood–brain barrier; emetic effect (5–HT3 receptors): provoke vomiting; stability to temperatures, pH values and enzymes [4]: inert to a wide range of temperatures, pH values and enzymes; absolute EC50 (HEp-2 cells [2]; 48 h): 2.44 ng/mL; toxic effect relative to valinomycin at an equally applied concentration (HEp-2 cells [2]; HEp-2 cells, from EC50 values, data not shown): 13.7 times
9 | D-O-Leu-D-Ala-L-O-Val-L-Val-D-O-Leu-Gly-L-O-Val-L-Val-D-O-Ile-D-Ala-L-O-Val-L-Val (lariat or depsi) [Isocereulide M, isocereulide M, cereulide variant, D-Ala by Gly and D-O-Leu by D-O-Ile] | 3.07 | –
10 | isocereulide A | 4.83 | higher toxicity than cereulide (HEp-2 cells [5]): approximately 8 fold
11 | isocereulide L | 2.76 | –
12 | isocereulide G | 4.56 | –
13 | isocereulide N | 2.76 | –
14 | isocereulide J | 3.57 | –
15 | isocereulide B | 3.83 | –
